In the assay the target is T1, human enzyme NAMPT (full length) (Homo sapiens, UniProt P43490).
T1 construct: human enzyme NAMPT (full length)
In words: NMN fluorescence biochemical assay (stimulation of NMN synthesis by NAMPT). The following applies: for EC50: concentration giving half-maximal activation, read-out: Enzymatic EC50; for Enzymatic Emax: fold change of maximal activation compared to DMSO. The procedure:
Certain compounds described herein were assayed for their ability to stimulate the synthesis of nicotinamide mononucleotide (NMN) by human enzyme NAMPT (full length). The enzymatic assay was performed in a 384-well plate using a TMD buffer (50 mM Tris-HCl, 10 mM MgCl2, 2 mM DTT, pH 7.5). Purified NAMPT (100 nM) was pre-incubated with 0.2 μL. DMSO solution of the test compound (with a series of concentrations) in 10 μL TMD buffer for 15 min at 37° C. The reaction was initiated by adding 10 μL solution of NAM (50 μM), PRPP (100 μM), and ATP (4 mM) in TMD buffer. After 1 h of incubation at 37 T, an aliquot (20 μL) of the NMN-containing sample was sequentially mixed with 5 μL of 20% acetophenone (in DMSO) and 5 μL of 2M KOH. The mixture was placed on ice for 10 min. Next, 22.5 μL of 100% formic acid was added to each sample, vortexed, and then incubated at 37° C. for 20 min. Fluorescence (Ex/Em=382/445 nm) was measured using an Envision plate reader. The potency measurements for the test compounds were quantified and represented as EC50 (concentration of a compound that gives half-maximal activation) and Emax (fold change of a compound's maximal activation compared to DMSO).

[1] abbreviates: NMN synthesis by purified human NAMPT (100 nM).
The mark [2] stands for this setting: NMN fluorescence assay, purified human NAMPT 100 nM.

Where two headings read alike, the source gives them in different places.

Broadly, the EC50 is the concentration at which the effect is half-maximal.

T1 sequence (P43490 whole entry): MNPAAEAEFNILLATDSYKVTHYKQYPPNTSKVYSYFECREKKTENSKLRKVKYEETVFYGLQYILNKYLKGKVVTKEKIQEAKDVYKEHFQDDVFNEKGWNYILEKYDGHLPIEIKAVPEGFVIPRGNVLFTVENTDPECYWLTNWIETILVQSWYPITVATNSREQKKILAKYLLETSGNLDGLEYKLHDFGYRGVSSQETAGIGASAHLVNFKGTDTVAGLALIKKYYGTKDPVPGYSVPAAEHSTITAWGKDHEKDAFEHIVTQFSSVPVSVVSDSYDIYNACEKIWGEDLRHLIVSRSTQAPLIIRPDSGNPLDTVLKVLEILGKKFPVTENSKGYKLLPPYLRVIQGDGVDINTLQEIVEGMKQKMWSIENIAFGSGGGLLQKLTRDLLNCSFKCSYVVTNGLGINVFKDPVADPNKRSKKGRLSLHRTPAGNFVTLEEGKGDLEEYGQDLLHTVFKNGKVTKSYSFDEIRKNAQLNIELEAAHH

`COc1cccc(CC2c3ccccc3C(=O)N2Cc2ccc3[nH]c(=O)oc3c2)c1` (centres unmarked) [Compound 180, 6-((1-(3-methoxybenzyl)-3-oxoisoindolin-2-yl)methyl)benzo[d]oxazol-2(3H)-one]: the “Enzymatic Emax” value is “B (3≥B>2)”. Under setting [1], the EC50 was in the range of 0.5 to 5 µM.

On to `O=C1c2ccccc2C(Cc2ncccc2C2CC2)N1Cc1ccc2[nH]c(=O)oc2c1` (centres unmarked) [Compound 184, 6-((1-((3-cyclopropylpyridin-2-yl)methyl)-3-oxoisoindolin-2-yl)methyl)benzo[d]oxazol-2(3H)-one], for which the “Enzymatic Emax” value is reported as “B (3≥B>2)”. Moreover, under setting [1], the EC50 was in the range of 0.5 to 5 µM. The like results for `O=C1c2ccccc2C(Cc2ncccc2Br)N1Cc1ccn2cnnc2c1` (centres unmarked) [Compound 239, 2-([1,2,4]triazolo[4,3-a]pyridin-7-ylmethyl)-3-((3-bromopyridin-2-yl)methyl)isoindolin-1-one] were, in that order, “B (3≥B>2)” and not below 5 µM. The like results for `COc1nc2cc(CN3C(=O)c4ccccc4C3Cc3ncccc3Br)ccc2[nH]1` (centres unmarked) [Compound 254, 3-((3-bromopyridin-2-yl)methyl)-2-((2-methoxy-1H-benzo[d]imidazol-5-yl)methyl) isoindolin-1-one] were, in that order, “B (3≥B>2)” and 0.5 to 5 µM. For the molecule `NC(=O)c1cnc(CN2C(=O)c3ccccc3C2Cc2ncccc2Br)s1` (centres unmarked) [Compound 280, 2-((1-((3-bromopyridin-2-yl)methyl)-3-oxoisoindolin-2-yl)methyl)thiazole-5-carboxamide], the “Enzymatic Emax” value was “B (3≥B>2)”. For the same molecule, under setting [1], the EC50 was not below 5 µM. For `O=C1CC2(CN1)CC(CN1C(=O)c3ccccc3C1Cc1ncccc1Br)C2` (centres unmarked) [Compound 424, 3-((3-bromopyridin-2-yl)methyl)-2-((7-oxo-6-azaspiro[3.4]octan-2-yl)methyl) isoindolin-1-one], the “Enzymatic Emax” value is “C (2≥C)”. In addition, under setting [2], the concentration for a half-maximal effect (EC50) is not below 5 µM.

With `O=C1c2ccccc2C(Cc2ncccc2Br)N1Cc1ccc2[nH]c(=S)oc2c1` (centres unmarked) [Compound 287, 3-((3-bromopyridin-2-yl)methyl)-2-((2-thioxo-2,3-dihydrobenzo[d]oxazol-6-yl)methyl) isoindolin-1-one], the “Enzymatic Emax” value is given as “B (3≥B>2)”. Besides, under setting [1], the EC50 was in the range of 0.5 to 5 µM. Consider `Cn1cnc(CC2c3ccccc3C(=O)N2Cc2ccc3[nH]c(=O)oc3c2)c1Cl` (centres unmarked) [Compound 249, 6-((1-((5-chloro-1-methyl-1H-imidazol-4-yl)methyl)-3-oxoisoindolin-2-yl)methyl)benzo[d]oxazol-2(3H)-one], for which the “Enzymatic Emax” value is “A (A>3)”. In addition, the EC50 under setting [1] is less than 0.5 µM. As for `Cn1ncc(Cl)c1CC1c2ccccc2C(=O)N1C[C@@H]1C[C@H]1c1c[nH]nn1` (relative stereo) [Compound 548, trans 2-((2-(1H-1,2,3-triazol-4-yl)cyclopropyl)methyl)-3-((4-chloro-1-methyl-1H-pyrazol-5-yl)methyl)isoindolin-1-one], the EC50 under setting [2] lay in the range of 0.5 to 5 µM. On to `CN(C)C1CN(c2ccc3c(c2)C(Cc2c(Cl)cnn2C)N(CC2CC4(CNC(=O)O4)C2)C3=O)C1` (centres unmarked) [Compound 497, 2-((3-((4-chloro-1-methyl-1H-pyrazol-5-yl)methyl)-5-(3-(dimethylamino)azetidin-1-yl)-1-oxoisoindolin-2-yl)methyl)-5-oxa-7-azaspiro[3.4]octan-6-one], for which the “Enzymatic Emax” value is “B (3≥B>2)”. Moreover, the half-maximal effective concentration (EC50) under setting [2] is less than 0.5 µM. In the same order, the values of `Cc1[nH]nnc1/C=C/CN1C(=O)c2ccccc2C1Cc1ncccc1Br` (centres unmarked) [Compound 386, (E)-3-((3-bromopyridin-2-yl)methyl)-2-(3-(5-methyl-1H-1,2,3-triazol-4-yl)allyl)isoindolin-1-one] are “B (3≥B>2)” and 0.5 to 5 µM. The like results for `O=C1c2ccccc2C(Cc2ncccc2Br)N1Cc1ccc2[nH]c(O)nc2c1` (centres unmarked) [Compound 367, 3-((3-bromopyridin-2-yl)methyl)-2-((2-hydroxy-1H-benzo[d]imidazol-5-yl)methyl)isoindolin-1-one] were, in that order, “C (2≥C)” and not below 5 µM.

These data come from US20260078130A1, “NAMPT MODULATORS, PREPARATIONS, AND USES THEREOF” (SIRONAX LTD., priority 2022, published 2026).
